From patent publication US20240376085A1 (Janssen Pharmaceutica NV, priority 2021, published 2024)

What was measured:
IL-17A : IL-17RA binding = target: T1, IL-17A : IL-17RA binding (Homo sapiens, UniProt Q16552, K93Q); assay: IL-17A(FLAG-tagged):IL-17RA(His-tagged) binding disruption Eu-HTRF assay, Protocol 1; conditions: FLAG-IL-17A 2.5 nM at 2x final concentration; average if tested more than once
T1 construct: Name: IL-17A-Flag
How it was run: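 IC50 came from a one-site competition fit of the acceptor/donor (665/620 nm) HTRF ratio. His-tagged IL-17RA, Eu-anti-FLAG and D2-anti-His were added after a 1 h rt compound preincubation with FLAG-tagged IL-17A dimer in PBS/0.01% Triton X-100, followed by 2 h at rt before reading.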

[1] = test system: IL-17A-induced G-CSF production in human normal keratinocyte (NHK); assay: NHK assay: IL-17A-induced G-CSF production in normal human keratinocytes; format: cell-based; conditions: Homo sapiens, Keratinocyte, 24 h, IL-17A 5 ng/mL, average if tested more than once
How it was run: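 Stimulus rhIL-17A 5 ng/mL final, premixed 1 h rt with compound; adult NHK, 5% FBS, 0.2% DMSO. Viability by CellTiter-Glo vs DMSO.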

T1 sequence (Q16552 with tags, fused parts or gaps K93Q): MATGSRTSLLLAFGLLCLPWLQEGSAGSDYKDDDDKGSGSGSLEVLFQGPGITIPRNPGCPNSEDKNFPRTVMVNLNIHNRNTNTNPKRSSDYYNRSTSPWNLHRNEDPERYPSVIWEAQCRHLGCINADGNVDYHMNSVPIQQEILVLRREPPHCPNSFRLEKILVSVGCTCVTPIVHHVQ

Cc1nonc1C(=O)N[C@H](c1nc2ccc([C@H](NC(=O)CC3CC(F)(F)C3)C3CC3)cc2[nH]1)[C@@H]1C[C@@H]2[C@H](C1)C2(F)F [Example 237, N—((S)-(6-((R)-Cyclopropyl(2-(3,3-difluorocyclobutyl)acetamido)methyl)-1H-benzo[d]imidazol-2-yl)((1R,3s,5S)-6,6-difluorobicyclo[3.1.0]hexan-3-yl)methyl)-4-methyl-1,2,5-oxadiazole-3-carboxamide]
IC50 (IL-17A : IL-17RA binding): < 50 nM | IC50 [1]: 50 to 100 nM

Cc1nonc1C(=O)N[C@H](c1nc2ccc([C@H](NC(=O)CC3CC(F)(F)C3)C3CC3)cc2[nH]1)C1CCC2(CC1)CC2 (stereo partly drawn) [Example 169, N—((S)-(6-((R)-Cyclopropyl(2-(3,3-difluorocyclobutyl)acetamido)methyl)-1H-benzo[d]imidazol-2-yl)(spiro[2.5]octan-6-yl)methyl)-4-methyl-1,2,5-oxadiazole-3-carboxamide]
IC50 (IL-17A : IL-17RA binding): < 50 nM | IC50 [1]: < 50 nM

CC(C)C(NC(=O)CCC(F)(F)F)c1ccc2[nH]c([C@@H](NC(=O)c3ccnn3C)C3CCC(F)(F)CC3)nc2c1 (single isomer, unassigned) [Example 44, N—((S)-(4,4-Difluorocyclohexyl)(5-((S*)-2-methyl-1-(4,4,4-trifluorobutanamido)propyl)-1H-benzo[d]imidazol-2-yl)methyl)-1-methyl-1H-pyrazole-5-carboxamide]
IC50 (IL-17A : IL-17RA binding): > 100 nM | IC50 [1]: > 100 nM

C[C@@H](NC(=O)CCC(F)(F)F)c1ccc2nc([C@@H](NC(=O)c3cnn(CCC(C)(C)C)n3)C3CCC(F)(F)CC3)[nH]c2c1 [Example 67, N—((S)-(4,4-Difluorocyclohexyl)(6-((R)-1-(4,4,4-trifluorobutanamido)ethyl)-1H-benzo[d]imidazol-2-yl)methyl)-2-(3,3-dimethylbutyl)-2H-1,2,3-triazole-4-carboxamide]
IC50 (IL-17A : IL-17RA binding): > 100 nM | IC50 [1]: > 100 nM

CC(C)n1nccc1C(=O)N[C@H](c1nc2ccc([C@H](NC(=O)CC3CC(F)(F)C3)C3CC3)cc2[nH]1)[C@H]1C[C@@H]2[C@H](C1)C2(F)F [Example 241, N—((S)-(6-((R)-Cyclopropyl(2-(3,3-difluorocyclobutyl)acetamido)methyl)-1H-benzo[d]imidazol-2-yl)((1R,3r,5S)-6,6-difluorobicyclo[3.1.0]hexan-3-yl)methyl)-1-isopropyl-1H-pyrazole-5-carboxamide]
IC50 (IL-17A : IL-17RA binding): 50 to 100 nM | IC50 [1]: < 50 nM

CC(C(F)F)n1cc(C(=O)N[C@H](c2nc3cc([C@@H](C)NC(=O)CCC(F)(F)F)ccc3[nH]2)C2CCC(F)(F)CC2)nn1 (stereo partly drawn) [Example 85, N—((S)-(4,4-Difluorocyclohexyl)(5-((R)-1-(4,4,4-trifluorobutanamido)ethyl)-1H-benzo[d]imidazol-2-yl)methyl)-1-(1,1-difluoropropan-2-yl)-1H-1,2,3-triazole-4-carboxamide]
IC50 (IL-17A : IL-17RA binding): > 100 nM | IC50 [1]: > 100 nM

CC(C)n1nccc1C(=O)N[C@H](c1nc2ccc([C@H](NC(=O)CC3CC(F)(F)C3)C3CC3)cc2[nH]1)[C@@H]1C[C@@H]2[C@H](C1)C2(F)F [Example 238, N—((S)-(6-((R)-Cyclopropyl(2-(3,3-difluorocyclobutyl)acetamido)methyl)-1H-benzo[d]imidazol-2-yl)((1R,3s,5S)-6,6-difluorobicyclo[3.1.0]hexan-3-yl)methyl)-1-isopropyl-1H-pyrazole-5-carboxamide]
IC50 (IL-17A : IL-17RA binding): < 50 nM | IC50 [1]: < 50 nM

CCn1ncc(C(=O)N[C@H](c2nc3cc([C@@H](C)NC(=O)CCC(F)(F)F)ccc3[nH]2)C2CCC(F)(F)CC2)n1 [Example 7, N—[(S)-(4,4-Difluorocyclohexyl)-[6-[(1R)-1-(4,4,4-trifluorobutanoylamino)ethyl]-1H-benzimidazol-2-yl]methyl]-2-ethyl-triazole-4-carboxamide]
IC50 (IL-17A : IL-17RA binding): > 100 nM | IC50 [1]: > 100 nM

C[C@@H](NC(=O)CCC(F)(F)F)c1ccc2[nH]c([C@@H](NC(=O)c3cc(CCC(F)(F)F)on3)C3CCC(F)(F)CC3)nc2c1 [Example 217, N—((S)-(4,4-Difluorocyclohexyl)(5-((R)-1-(4,4,4-trifluorobutanamido)ethyl)-1H-benzo[d]imidazol-2-yl)methyl)-5-(3,3,3-trifluoropropyl)isoxazole-3-carboxamide]
IC50 (IL-17A : IL-17RA binding): > 100 nM | IC50 [1]: > 100 nM

C[C@@H](NC(=O)CCC(F)(F)F)c1ccc2[nH]c([C@@H](NC(=O)[C@H]3C[C@H]3F)C3CCC(F)(F)CC3)nc2c1 [Example 99, (1R,2R)—N—((S)-(4,4-Difluorocyclohexyl)(5-((R)-1-(4,4,4-trifluorobutanamido)ethyl)-1H-benzo[d]imidazol-2-yl)methyl)-2-fluorocyclopropane-1-carboxamide]
IC50 (IL-17A : IL-17RA binding): > 100 nM | IC50 [1]: > 100 nM

CC(C)n1nccc1C(=O)N[C@H](c1nc2ccc([C@H](NC(=O)CC3CC(F)(F)C3)C3CC3)cc2[nH]1)[C@@H]1CCCCO1 (relative stereo) [Example 250, N—((R*)-(6-((R)-Cyclopropyl(2-(3,3-difluorocyclobutyl)acetamido)methyl)-1H-benzo[d]imidazol-2-yl)((S*)-tetrahydro-2H-pyran-2-yl)methyl)-1-isopropyl-1H-pyrazole-5-carboxamide]
IC50 (IL-17A : IL-17RA binding): 50 to 100 nM | IC50 [1]: 50 to 100 nM

Cc1nonc1C(=O)N[C@@H](CC(C)(C)C(F)(F)F)c1nc2ccc([C@H](NC(=O)CC3CC(F)(F)C3)C3CC3)cc2[nH]1 [Example 186, N—((S)-1-(6-((R)-Cyclopropyl(2-(3,3-difluorocyclobutyl)acetamido)methyl)-1H-benzo[d]imidazol-2-yl)-4,4,4-trifluoro-3,3-dimethylbutyl)-4-methyl-1,2,5-oxadiazole-3-carboxamide]
IC50 (IL-17A : IL-17RA binding): < 50 nM | IC50 [1]: 50 to 100 nM

CC(CC(=O)N[C@H](C)c1ccc2nc([C@@H](NC(=O)c3cc(F)ccc3F)C3CCC(F)(F)CC3)[nH]c2c1)C(F)(F)F (single isomer, unassigned) [Example 136, N—((S)-(4,4-Difluorocyclohexyl)(6-((R)-1-((R*)-4,4,4-trifluoro-3-methylbutanamido)ethyl)-1H-benzo[d]imidazol-2-yl)methyl)-2,5-difluorobenzamide]
IC50 (IL-17A : IL-17RA binding): > 100 nM | IC50 [1]: > 100 nM

C[C@@H](NC(=O)CCC(F)(F)F)c1ccc2[nH]c([C@@H](NC(=O)c3cnn(CCC(F)(F)F)c3)C3CCC(F)(F)CC3)nc2c1 [Example 1, N—[(S)-(4,4-Difluorocyclohexyl)-[6-[(1R)-1-(4,4,4-trifluorobutanoylamino)ethyl]-1H-benzimidazol-2-yl]methyl]-1-(3,3,3-trifluoropropyl)pyrazole-4-carboxamide]
IC50 (IL-17A : IL-17RA binding): > 100 nM | IC50 [1]: > 100 nM

CC(C)n1nccc1C(=O)N[C@H](c1nc2ccc([C@H](NC(=O)CC3CC(F)(F)C3)C3CC3)cc2[nH]1)C1CCCCO1 (single isomer, unassigned) [Example 253, N—((R)-(6-((R)-Cyclopropyl(2-(3,3-difluorocyclobutyl)acetamido)methyl)-1H-benzo[d]imidazol-2-yl)((R*)-tetrahydro-2H-pyran-2-yl)methyl)-1-isopropyl-1H-pyrazole-5-carboxamide]
IC50 (IL-17A : IL-17RA binding): > 100 nM | IC50 [1]: > 100 nM

CC(CC(=O)N[C@H](C)c1ccc2nc([C@@H](NC(=O)c3ccnn3CCC(F)(F)F)C3CCC(F)(F)CC3)[nH]c2c1)C(F)(F)F (single isomer, unassigned) [Example 134, N—((S)-(4,4-Difluorocyclohexyl)(6-((R)-1-((R*)-4,4,4-trifluoro-3-methylbutanamido)ethyl)-1H-benzo[d]imidazol-2-yl)methyl)-1-(3,3,3-trifluoropropyl)-1H-pyrazole-5-carboxamide]
IC50 (IL-17A : IL-17RA binding): > 100 nM | IC50 [1]: > 100 nM

CCc1nonc1C(=O)N[C@@H](CC(C)(C)C(F)(F)F)c1nc2cc([C@H](NC(=O)CCC(F)(F)F)C3CC3)ccc2[nH]1 (relative stereo) [Example 190, N—((S*)-1-(5-((R*)-Cyclopropyl(4,4,4-trifluorobutanamido)methyl)-1H-benzo[d]imidazol-2-yl)-4,4,4-trifluoro-3,3-dimethylbutyl)-4-ethyl-1,2,5-oxadiazole-3-carboxamide]
IC50 (IL-17A : IL-17RA binding): < 50 nM | IC50 [1]: < 50 nM

C[C@@H](NC(=O)CCC(F)(F)F)c1ccc2[nH]c([C@@H](NC(=O)c3nn(CC4CCC4)cc3C#N)C3CCC(F)(F)CC3)nc2c1 [Example 91, 4-Cyano-1-(cyclobutylmethyl)-N—((S)-(4,4-difluorocyclohexyl)(5-((R)-1-(4,4,4-trifluorobutanamido)ethyl)-1H-benzo[d]imidazol-2-yl)methyl)-1H-pyrazole-3-carboxamide]
IC50 (IL-17A : IL-17RA binding): > 100 nM | IC50 [1]: > 100 nM

C[C@@H](NC(=O)CCC(F)(F)F)c1ccc2[nH]c([C@@H](NC(=O)C3(C(F)(F)F)CC3)C3CCC(F)(F)CC3)nc2c1 [Example 97, N—((S)-(4,4-Difluorocyclohexyl)(5-((R)-1-(4,4,4-trifluorobutanamido)ethyl)-1H-benzo[d]imidazol-2-yl)methyl)-1-(trifluoromethyl)cyclopropane-1-carboxamide]
IC50 (IL-17A : IL-17RA binding): > 100 nM | IC50 [1]: > 100 nM

CC(C)n1nccc1C(=O)N[C@@H](CO[C@@H](C)C(F)(F)F)c1nc2ccc([C@H](NC(=O)CC3CC(F)(F)C3)C3CC3)cc2[nH]1 (relative stereo) [Example 158, N—((R*)-1-(6-((R)-Cyclopropyl(2-(3,3-difluorocyclobutyl)acetamido)methyl)-1H-benzo[d]imidazol-2-yl)-2-(((S)-1,1,1-trifluoropropan-2-yl)oxy)ethyl)-1-isopropyl-1H-pyrazole-5-carboxamide]
IC50 (IL-17A : IL-17RA binding): < 50 nM | IC50 [1]: > 100 nM
